Test results reported in patent publication US12077503B2, “Substituted cyclic amides and their use as herbicides” (FMC CORPORATION, priority 2015, dated 2024).

Tests used:
Type in all cases: in vivo
[1] = test system: barnyardgrass (Echinochloa crus-galli); assay: Test G Pre-Emergence Protocol; details: Echinochloa crus-galli, pre-emergence, 312 h, evaluated after 13 days; for pest or weed control at 15.625 g/ha: 15.625 g ai/ha; for pest or weed control at 15.625 g/ha / pest or weed control at 250 g/ha: read-out: Barnyardgrass damage rating (100=total damage to plant; 0=no damage to plant); for pest or weed control at 62.5 g/ha: 62.5 g ai/ha, 100=total damage to plant, 0=no damage to plant, read-out: Barnyardgrass damage rating; for pest or weed control at 250 g/ha: 250 g ai/ha
Procedure, shortened: (§1)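 Visual injury (0–100) at day 13 after a single pre-emergence spray. Rates: 15.625, 62.5, 250 g/ha in acetone–water 50:50 with 0.5% Tween 20. Growth conditions: 24/16° C, 14 h light, 65% humidity.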

corn (Zea mays) [2] = assay: Test G Pre-Emergence Protocol; details: Zea mays, pre-emergence, 312 h, evaluated after 13 days; for plant injury at 15.625 g/ha: 15.625 g ai/ha; for plant injury at 15.625 g/ha / plant injury at 250 g/ha: read-out: Corn damage rating (100=total damage to plant; 0=no damage to plant); for plant injury at 62.5 g/ha: 62.5 g ai/ha, 100=total damage to plant, 0=no damage to plant, read-out: Corn damage rating; for plant injury at 250 g/ha: 250 g ai/ha
Procedure, shortened: as §1

[3] = test system: giant foxtail (Setaria faberi); assay: Test G Pre-Emergence Protocol; details: Setaria faberi, pre-emergence, 312 h, evaluated after 13 days; for pest or weed control at 15.625 g/ha: 15.625 g ai/ha; for pest or weed control at 15.625 g/ha / pest or weed control at 250 g/ha: read-out: Foxtail, Giant damage rating (100=total damage to plant; 0=no damage to plant); for pest or weed control at 62.5 g/ha: 62.5 g ai/ha, 100=total damage to plant, 0=no damage to plant, read-out: Foxtail, Giant damage rating; for pest or weed control at 250 g/ha: 250 g ai/ha
Procedure, shortened: as §1

[4] = test system: ivy-leaved morning glory (Ipomoea hederacea); assay: Test G Pre-Emergence Protocol; details: Ipomoea, pre-emergence, 312 h, evaluated after 13 days; for pest or weed control at 15.625 g/ha: 15.625 g ai/ha; for pest or weed control at 15.625 g/ha / pest or weed control at 250 g/ha: read-out: Morningglory, Ivy-leaved damage rating (100=total damage to plant; 0=no damage to plant); for pest or weed control at 62.5 g/ha: 62.5 g ai/ha, 100=total damage to plant, 0=no damage to plant, read-out: Morningglory, Ivy-leaved damage rating; for pest or weed control at 250 g/ha: 250 g ai/ha
Procedure, shortened: as §1

[5] = test system: redroot pigweed (Amaranthus retroflexus); assay: Test G Pre-Emergence Protocol; details: Amaranthus retroflexus, pre-emergence, 312 h, evaluated after 13 days; for pest or weed control at 15.625 g/ha: 15.625 g ai/ha; for pest or weed control at 15.625 g/ha / pest or weed control at 250 g/ha: read-out: Pigweed, Redroot damage rating (100=total damage to plant; 0=no damage to plant); for pest or weed control at 62.5 g/ha: 62.5 g ai/ha, 100=total damage to plant, 0=no damage to plant, read-out: Pigweed, Redroot damage rating; for pest or weed control at 250 g/ha: 250 g ai/ha
Procedure, shortened: as §1

[6] = test system: velvetleaf (Abutilon theophrasti); assay: Test G Pre-Emergence Protocol; details: Abutilon theophrasti, pre-emergence, 312 h, evaluated after 13 days; for pest or weed control at 15.625 g/ha: 15.625 g ai/ha; for pest or weed control at 15.625 g/ha / pest or weed control at 250 g/ha: read-out: Velvetleaf damage rating (100=total damage to plant; 0=no damage to plant); for pest or weed control at 62.5 g/ha: 62.5 g ai/ha, 100=total damage to plant, 0=no damage to plant, read-out: Velvetleaf damage rating; for pest or weed control at 250 g/ha: 250 g ai/ha
Procedure, shortened: as §1

[7] = test system: barnyardgrass (Echinochloa crus-galli); assay: Test G Post-Emergence Protocol; details: Echinochloa crus-galli, post-emergence, 312 h, read-out: Barnyardgrass damage rating; for pest or weed control at 15.625 g/ha: 15.625 g ai/ha, evaluated after 13 days (100=total damage to plant; 0=no damage to plant); for pest or weed control at 62.5 g/ha: 62.5 g ai/ha; for pest or weed control at 62.5 g/ha / pest or weed control at 250 g/ha: evaluated after 13 days, 100=total damage to plant, 0=no damage to plant; for pest or weed control at 250 g/ha: 250 g ai/ha
Procedure, shortened: (§2)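 Damage was rated 13 days after treatment from 0 (none) to 100 (plant killed). Compound was applied as a spray at 15.625, 62.5 or 250 g/ha in 50:50 acetone/water containing 0.5% Tween 20, onto 8-day-old potted plants kept in a glasshouse (24/16 °C, 14 h light, 65% humidity).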

corn (Zea mays) [8] = assay: Test G Post-Emergence Protocol; details: Zea mays, post-emergence, 312 h, read-out: Corn damage rating; for plant injury at 15.625 g/ha: 15.625 g ai/ha, evaluated after 13 days (100=total damage to plant; 0=no damage to plant); for plant injury at 62.5 g/ha: 62.5 g ai/ha; for plant injury at 62.5 g/ha / plant injury at 250 g/ha: evaluated after 13 days, 100=total damage to plant, 0=no damage to plant; for plant injury at 250 g/ha: 250 g ai/ha
Procedure, shortened: as §2

[9] = test system: giant foxtail (Setaria faberi); assay: Test G Post-Emergence Protocol; details: Setaria faberi, post-emergence, 312 h, read-out: Foxtail, Giant damage rating; for pest or weed control at 15.625 g/ha: 15.625 g ai/ha, evaluated after 13 days (100=total damage to plant; 0=no damage to plant); for pest or weed control at 62.5 g/ha: 62.5 g ai/ha; for pest or weed control at 62.5 g/ha / pest or weed control at 250 g/ha: evaluated after 13 days, 100=total damage to plant, 0=no damage to plant; for pest or weed control at 250 g/ha: 250 g ai/ha
Procedure, shortened: as §2

[10] = test system: ivy-leaved morning glory (Ipomoea hederacea); assay: Test G Post-Emergence Protocol; details: Ipomoea, post-emergence, 312 h, read-out: Morningglory, Ivy-leaved damage rating; for pest or weed control at 15.625 g/ha: 15.625 g ai/ha, evaluated after 13 days (100=total damage to plant; 0=no damage to plant); for pest or weed control at 62.5 g/ha: 62.5 g ai/ha; for pest or weed control at 62.5 g/ha / pest or weed control at 250 g/ha: evaluated after 13 days, 100=total damage to plant, 0=no damage to plant; for pest or weed control at 250 g/ha: 250 g ai/ha
Procedure, shortened: as §2

[11] = test system: redroot pigweed (Amaranthus retroflexus); assay: Test G Post-Emergence Protocol; details: Amaranthus retroflexus, post-emergence, 312 h, read-out: Pigweed, Redroot damage rating; for pest or weed control at 15.625 g/ha: 15.625 g ai/ha, evaluated after 13 days (100=total damage to plant; 0=no damage to plant); for pest or weed control at 62.5 g/ha: 62.5 g ai/ha; for pest or weed control at 62.5 g/ha / pest or weed control at 250 g/ha: evaluated after 13 days, 100=total damage to plant, 0=no damage to plant; for pest or weed control at 250 g/ha: 250 g ai/ha
Procedure, shortened: as §2

[12] = test system: velvetleaf (Abutilon theophrasti); assay: Test G Post-Emergence Protocol; details: Abutilon theophrasti, post-emergence, 312 h, read-out: Velvetleaf damage rating; for pest or weed control at 15.625 g/ha: 15.625 g ai/ha, evaluated after 13 days (100=total damage to plant; 0=no damage to plant); for pest or weed control at 62.5 g/ha: 62.5 g ai/ha; for pest or weed control at 62.5 g/ha / pest or weed control at 250 g/ha: evaluated after 13 days, 100=total damage to plant, 0=no damage to plant; for pest or weed control at 250 g/ha: 250 g ai/ha
Procedure, shortened: as §2

| Compound | pest or weed control at 15.625 g/ha [1] [%] | pest or weed control at 62.5 g/ha [1] [%] | pest or weed control at 250 g/ha [1] [%] | plant injury at 15.625 g/ha (corn (Zea mays) [2]) [%] | plant injury at 62.5 g/ha (corn (Zea mays) [2]) [%] | plant injury at 250 g/ha (corn (Zea mays) [2]) [%] | pest or weed control at 15.625 g/ha [3] [%] | pest or weed control at 62.5 g/ha [3] [%] | pest or weed control at 250 g/ha [3] [%] | pest or weed control at 15.625 g/ha [4] [%] | pest or weed control at 62.5 g/ha [4] [%] | pest or weed control at 250 g/ha [4] [%] | pest or weed control at 15.625 g/ha [5] [%] | pest or weed control at 62.5 g/ha [5] [%] | pest or weed control at 250 g/ha [5] [%] | pest or weed control at 15.625 g/ha [6] [%] | pest or weed control at 62.5 g/ha [6] [%] | pest or weed control at 250 g/ha [6] [%] | pest or weed control at 15.625 g/ha [7] [%] | pest or weed control at 62.5 g/ha [7] [%] | further results |
| --- | --- | --- | --- | --- | --- | --- | --- | --- | --- | --- | --- | --- | --- | --- | --- | --- | --- | --- | --- | --- | --- |
| Cc1nc(Cl)ccc1NC(=O)[C@H]1C(=O)N(C)C[C@@H]1c1ccc(C(F)(F)F)cc1 (racemic) [Compound 1825] | 0 | 0 | 0 | 0 | 0 | 0 | 0 | 20 | 70 | 0 | 0 | 0 | 0 | 0 | 0 | 0 | 0 | 0 | 0 | 0 | pest or weed control at 250 g/ha [7]: 0%; plant injury at 15.625 g/ha (corn (Zea mays) [8]): 0%; plant injury at 62.5 g/ha (corn (Zea mays) [8]): 0%; plant injury at 250 g/ha (corn (Zea mays) [8]): 10%; pest or weed control at 15.625 g/ha [9]: 0%; pest or weed control at 62.5 g/ha [9]: 0%; pest or weed control at 250 g/ha [9]: 50%; pest or weed control at 15.625 g/ha [10]: 0%; pest or weed control at 62.5 g/ha [10]: 0%; pest or weed control at 250 g/ha [10]: 20%; pest or weed control at 15.625 g/ha [11]: 0%; pest or weed control at 62.5 g/ha [11]: 0%; pest or weed control at 250 g/ha [11]: 10%; pest or weed control at 15.625 g/ha [12]: 0%; pest or weed control at 62.5 g/ha [12]: 0%; pest or weed control at 250 g/ha [12]: 20% |
| CON1C[C@H](c2ccc(C(F)(F)F)cc2)[C@@H](C(=O)Nc2cccc(F)c2F)C1=O (racemic) [Compound 1836] | 10 | 70 | 80 | 10 | 10 | 80 | 50 | 80 | 90 | 10 | 20 | 30 | 0 | 50 | 50 | 0 | 0 | 30 | 0 | 70 | pest or weed control at 250 g/ha [7]: 80%; plant injury at 15.625 g/ha (corn (Zea mays) [8]): 0%; plant injury at 62.5 g/ha (corn (Zea mays) [8]): 10%; plant injury at 250 g/ha (corn (Zea mays) [8]): 70%; pest or weed control at 15.625 g/ha [9]: 50%; pest or weed control at 62.5 g/ha [9]: 70%; pest or weed control at 250 g/ha [9]: 70%; pest or weed control at 15.625 g/ha [10]: 20%; pest or weed control at 62.5 g/ha [10]: 20%; pest or weed control at 250 g/ha [10]: 40%; pest or weed control at 15.625 g/ha [11]: 20%; pest or weed control at 62.5 g/ha [11]: 60%; pest or weed control at 250 g/ha [11]: 70%; pest or weed control at 15.625 g/ha [12]: 10%; pest or weed control at 62.5 g/ha [12]: 20%; pest or weed control at 250 g/ha [12]: 50% |
| CN1C[C@H](c2ccc(Cl)cc2)[C@@H](C(=O)Nc2cccnc2F)C1=O [Compound 1810] | 60 | 90 | 90 | 20 | 30 | 90 | 80 | 90 | 90 | 0 | 30 | 70 | 0 | 40 | 80 | 0 | 40 | 70 | 0 | 60 | pest or weed control at 250 g/ha [7]: 80%; plant injury at 15.625 g/ha (corn (Zea mays) [8]): 0%; plant injury at 62.5 g/ha (corn (Zea mays) [8]): 0%; plant injury at 250 g/ha (corn (Zea mays) [8]): 50%; pest or weed control at 15.625 g/ha [9]: 20%; pest or weed control at 62.5 g/ha [9]: 80%; pest or weed control at 250 g/ha [9]: 80%; pest or weed control at 15.625 g/ha [10]: 20%; pest or weed control at 62.5 g/ha [10]: 60%; pest or weed control at 250 g/ha [10]: 20%; pest or weed control at 15.625 g/ha [11]: 0%; pest or weed control at 62.5 g/ha [11]: 10%; pest or weed control at 250 g/ha [11]: 60%; pest or weed control at 15.625 g/ha [12]: 20%; pest or weed control at 62.5 g/ha [12]: 30%; pest or weed control at 250 g/ha [12]: 40% |
